Test results taken from patent EP0091090A2, “Bipyridine substituted imidazolidene copper complex and its use in food-producing animals, and bipyridine, 2,2'-(2-imidazolidinylidene) di-copper complex and use in animals” (INTERNATIONAL MINERALS & CHEMICAL CORPORATION, priority 1982, dated 1983).

Test system: rumen fluid batch culture
Test: Rumen fluid batch culture test: volatile fatty acid, gas (CH4 + H2), protein and amino acid accumulation (Example 2)
Format: cell-based, steers
Parameters: HFo (formate) / HAc (acetate) / HPr (propionate) / HiBu (isobutyrate) / HBu (butyrate) / HiVal (isovalerate) / Total / Caloric Value of H2 / Caloric Value of HFo / Caloric Value of HAc / Caloric Value of HPr / Caloric Value of HiBu / Caloric Value of HBu / Caloric Value of HiVal / Caloric Value of CH3: unit not given here
Method: The above Formula IV composition was tested to determine its effectiveness as a feed additive for ruminants. The initial tests were in rumen fluid batch culture systems to determine the effect of the compound on volatile fatty acid/methane ratios (VFA/CH4). […] Test Procedure: A 50/50 mixture of ground corn and ground alfalfa was used as the substrate for the subject rumen fluid batch culture test. The compound (Formula IV ) was present in the rumen fluid in three separate test samples at 8.33, 25 and 75 ppm, respectively. On day 1, rumen fluid was obtained from mature fistulated steers on 50/50 concentrate/roughage diets. The rumen fluid (RF) was strained through three layers of gauze cloth and equilibrated with C02 gas. Wheaton serum vials (125 ml) were prepared ahead with 20 ml continuous batch buffer and 100 mg 50/50 ground corn/ground alfalfa. Controls and compounds (dissolved in acetone) were set up according to desired levels. The vials were kept under C02 gas until 20 ml of the strained RF was added. The vials were sealed and incubated at 39°C for 24 hours in a hot water bath. On successive days, gas samples (0.1 ml) were drawn for gas chromatography analysis before transferring 20 ml of the batch culture to another vial containing 20 ml of buffer, 100 mg substrate, and the corresponding compound. The remaining 20 ml was inoculated with 2 ml 6N HC1 and centrifuged at 15,000 rpm for 15 minutes. Ether extracts were prepared for volatile fatty acid (VFA) analysis. Some minor adjustments were made in the termperatures on the Hewlett-Packard 5750 Gas-Liquid Chromatograph used for VFA analysis when the glass column used was changed from 1/4 inch diameter to 1/8 inch diameter. Injection Port = 220°C Column Oven = 170°C Flame Detector = 250°C Only 4 minutes was needed to record the sample instead of the previous 7 minutes.

[1] = 25 μg/ml, total produced on Day 10

Substance: 2,2'-(4,5-diphenyl-2H-imidazol-2-ylidene)bispyridine with CuCl2(1/1) [Formula IV Compound]
- CH4 (25 µg/ml, day 8): 6 µ Moles
- H2 (25 µg/ml, day 8): 17 µ Moles
- HAc (acetate) (25 µg/ml, day 8): 20.38
- HBu (butyrate) (25 µg/ml, day 8): 8.39
- HFo (formate) (25 µg/ml, day 8): 2.20
- HPr (propionate) (25 µg/ml, day 8): 14.71
- HiBu (isobutyrate) (25 µg/ml, day 8): 2.73
- HiVal (isovalerate) (25 µg/ml, day 8): 0
- Protein (25 µg/ml, day 8): 0 mg/mL
- Total (25 µg/ml, day 8): 48.40
- AA (25 µg/ml, day 9): 0.20 µ Moles/ml
- CH4 (25 µg/ml, day 9): 28 µ Moles
- H2 (25 µg/ml, day 9): 22 µ Moles
- HAc (acetate) (25 µg/ml, day 9): 20.91
- HBu (butyrate) (25 µg/ml, day 9): 5.82
- HFo (formate) (25 µg/ml, day 9): 1.78
- HPr (propionate) (25 µg/ml, day 9): 14.96
- HiBu (isobutyrate) (25 µg/ml, day 9): 1.21
- HiVal (isovalerate) (25 µg/ml, day 9): 0
- Protein (25 µg/ml, day 9): 0.03 mg/mL
- Total (25 µg/ml, day 9): 44.66
- AA (25 µg/ml, day 10): 0.30 µ Moles/ml
- CH4 (25 µg/ml, day 10): 55 µ Moles
- H2 (25 µg/ml, day 10): 8 µ Moles
- HAc (acetate) (25 µg/ml, day 10): 21.76
- HBu (butyrate) (25 µg/ml, day 10): 2.06
- HFo (formate) (25 µg/ml, day 10): 1.00
- HPr (propionate) (25 µg/ml, day 10): 13.79
- HiBu (isobutyrate) (25 µg/ml, day 10): 0.01
- HiVal (isovalerate) (25 µg/ml, day 10): 0
- Protein (25 µg/ml, day 10): 0 mg/mL
- Total (25 µg/ml, day 10): 38.62
- Caloric Value of CH3 (25 µg/ml, produced on Day 10): 11.59
- Caloric Value of H2 (25 µg/ml, produced on Day 10): 0.55
- Caloric Value of HAc (25 µg/ml, produced on Day 10): 94.73
- Caloric Value of HBu (25 µg/ml, produced on Day 10): 0
- Caloric Value of HFo (25 µg/ml, produced on Day 10): 0.28
- Caloric Value of HPr (25 µg/ml, produced on Day 10): 92.13
- Caloric Value of HiBu (25 µg/ml, produced on Day 10): 0
- Caloric Value of HiVal (25 µg/ml, produced on Day 10): 0
- Caloric Value, Total (VFA's) (25 µg/ml, produced on Day 10): 187.14
- Total Cal in VFA & Gas (25 µg/ml, produced on Day 10): 199.28 cal
- CH4 produced on Day 10 [1]: 55
- H2 produced on Day 10 [1]: 8
- HAc (acetate) produced on Day 10 [1]: 452.4
- HBu (butyrate) produced on Day 10 [1]: 0
- HFo (formate) produced on Day 10 [1]: 4.40
- HPr (propionate) produced on Day 10 [1]: 252.4
- HiBu (isobutyrate) produced on Day 10 [1]: 0
- HiVal (isovalerate) produced on Day 10 [1]: 0
- Total VFA's produced on Day 10 [1]: 709.2
- Gross Cal Remaining in Feed (75 µg/ml, Day 10, initial feed gross energy 800 kcal): 350.70 cal
- methane (75 µg/ml, by day 10): inhibited completely
- AA (75 µg/ml, day 2): 0.18 µ Moles/ml
- CH4 (75 µg/ml, day 2): 155 µ Moles
- H2 (75 µg/ml, day 2): 0 µ Moles
- HAc (acetate) (75 µg/ml, day 2): 33.48
- HBu (butyrate) (75 µg/ml, day 2): 8.18
- HFo (formate) (75 µg/ml, day 2): 0.95
- HPr (propionate) (75 µg/ml, day 2): 11.10
- HiBu (isobutyrate) (75 µg/ml, day 2): 0.95
- HiVal (isovalerate) (75 µg/ml, day 2): 0.69
- Protein (75 µg/ml, day 2): 0 mg/mL
- Total (75 µg/ml, day 2): 55.34
- AA (75 µg/ml, day 3): 0.27 µ Moles/ml
- CH4 (75 µg/ml, day 3): 71 µ Moles
- H2 (75 µg/ml, day 3): 0 µ Moles
- HAc (acetate) (75 µg/ml, day 3): 28.66
- HBu (butyrate) (75 µg/ml, day 3): 15.10
- HFo (formate) (75 µg/ml, day 3): 0.80
- HPr (propionate) (75 µg/ml, day 3): 14.81
- HiBu (isobutyrate) (75 µg/ml, day 3): 3.81
- HiVal (isovalerate) (75 µg/ml, day 3): 0.44
- Protein (75 µg/ml, day 3): 0.04 mg/mL
- Total (75 µg/ml, day 3): 63.61
- CH4 (75 µg/ml, day 4): 74 µ Moles
- H2 (75 µg/ml, day 4): 0 µ Moles
- HAc (acetate) (75 µg/ml, day 4): 27.47
- HBu (butyrate) (75 µg/ml, day 4): 5.26
- HFo (formate) (75 µg/ml, day 4): 1.29
- HPr (propionate) (75 µg/ml, day 4): 18.71
- HiBu (isobutyrate) (75 µg/ml, day 4): 0.95
- HiVal (isovalerate) (75 µg/ml, day 4): 0.25
- Total (75 µg/ml, day 4): 53.92
- CH4 (75 µg/ml, day 5): 74 µ Moles
- H2 (75 µg/ml, day 5): 0 µ Moles
- HAc (acetate) (75 µg/ml, day 5): 23.84
- HBu (butyrate) (75 µg/ml, day 5): 4.59
- HFo (formate) (75 µg/ml, day 5): 0.61
